The test system of one test is REC1_16 (TCGG 195) mRNA. The test can be described thus: quantified RT-PCR, Rec1_16. It is filed as in vivo, rabbit. Conditions: for Relative Abundance Rec1_16, 20 pg F: hypercholesterolemic plus lercanidipine racemate, eight weeks, H2 (normocholesterolemic)=1.0. How it is done:
(§1) Nineteen of the isolated DST clones were further validated using RT-PCR analyses; the data are presented in FIGS. 6-24 and in Tables 5-23, below. For each DST examined, the optimal annealing temperature and reagent conditions were determined for the corresponding set of primers (see Table 25) based on results from a preliminary experiment. In eight separate reactions, each set of primers was assayed to find the optimal conditions by adjusting the following four parameters: primer concentration, dNTP concentration, MgCl2 concentration, and number of Taq polymerase units. Once optimal conditions were determined, each DST was run in duplicate multiple simultaneous reactions which usually included at least four dilutions of template (cDNA library), plus control reactions lacking template, and six sequential data points for numbers of cycles.
(§2) Reactions were performed using “Hot Start” PCR with the Clontech TaqStart antibody system (Cat. #5400-1). Each reaction contained 1 ml of the cDNA library dilution as template, determined amounts of AmpliTaq DNA polymerase (cat. #N808-0156), MgCl2, dNTPs (GibcoBRL cat. #10297-018), primer, and Clontech TaqStart Antibody in a 20 ml final reaction volume using 10×Taq buffer II (without MgCl2). Typically, a master mix containing all components except the template was prepared and aliquoted. Various templates were then added to these master mix samples and 20 ml volumes were subsequently dispensed into individual reaction tubes. At various times during the PCR run, tubes were removed sequentially on a predetermined schedule in order to quantitate expression of the target DST over a “window” of cycle times. After amplification, the samples were quantified via fluorimetry.
(§3) PCR was performed at annealing temperatures that were five degrees above the average melting temperature of each primer pair. For primers greater than 10 bases (in a 0.05M salt solution), melting temperature was calculated using the following formula: Tm=59.9+41[% GC]−[675/Primer Length], where %GC is the decimal value. Following determination of the average melting temperature of the primer pair, the annealing temperature was determined by adding five degrees to the average melting temperature. PCR was performed using the following program: 1) 95 degrees Celsius, 3 minutes; 2) 95 degrees Celsius, 30 seconds; 3) TM+5 degrees Celsius, 30 seconds; 4) 72 degrees Celsius, for a time dependent on target length at 16 bp/second; 5) repeat steps 2-4 33 more cycles; 6) 72 degrees Celsius, 3 minutes; 7) 14 degrees Celsius, forever.
(§4) Following temperature cycling, 2 ml of the PCR reaction was added to 140 ml of a 1:280 dilution of PicoGreen (Molecular Probes cat. #P-11495 (10×100 ml)) in TE pH 7.5 in a 96-well Costar UV microtiter plate (Fisher cat. #07-200623). The samples were mixed gently for 1.5 minutes and allowed to equilibrate at room temperature in the dark for 15 minutes. The concentration of the PCR products was quantified by fluorimetry using a PerSeptive Biosystems CytoFluor series 4000 multi-well plate reader.
Background fluorescence was determined by using duplicate control samples that were cycled with all reaction components except the template. […] The sensitivity of the PicoGreen dsDNA assay is reported to be 250 pg/ml (50 pg dsDNA in a […] assay volume) using a fluorescence microplate reader such as was used in these measurements. […]

For the next test, the system named is Rec1_12 (GCCC 232) mRNA. In words: quantified RT-PCR, Rec1_12. Format: in vivo, rabbit. Conditions: for Relative Abundance Rec1_12, 20 pg F: hypercholesterolemic plus lercanidipine racemate, eight weeks, H2 (normocholesterolemic)=1.0. How it is done:
as §1, §2, §3, §4
(§5) Background fluorescence was determined by using duplicate control samples that were cycled with all reaction components except the template. The mean value from these duplicate background control samples was subtracted from the corresponding experimental values prior to analyzing results. The sensitivity of the PicoGreen dsDNA assay is reported to be 250 pg/ml (50 pg dsDNA in a […] assay volume) using a fluorescence microplate reader such as was used in these measurements. […]

Test [1] has as its system REC1_3 (MspI ACGG 162) mRNA. The test can be described thus: quantified RT-PCR, Rec1_3. It is filed as in vivo, rabbit. The following applies: for Relative Abundance Rec1_3, 500 pg F: hypercholesterolemic plus lercanidipine racemate, eight weeks, H2 (normocholesterolemic)=1.0. How it is done:
as §1, §2, §3, §4, §5

The next test relates to LDL. The following applies: Soma et al. 1998; cited from earlier work.
Test [2] concerns REC1_13 (MspI GCCC 216) mRNA. In words: quantified RT-PCR, Rec1_13. It is filed as in vivo, rabbit. Conditions: for Relative Abundance Rec1_13, 100 pg F: hypercholesterolemic plus lercanidipine racemate, eight weeks, H2 (normocholesterolemic)=1.0. The procedure: as §1, §2, §3, §4, §5
Another test has as its system Rec1_36 (TTAG 155) mRNA. In words: quantified RT-PCR, Rec1_36. It is filed as in vivo, rabbit. Conditions: hypercholesterolemic plus lercanidipine racemate, eight weeks, H2 (normocholesterolemic)=1.0. How it is done:
as §1
Reactions were performed using “Hot Start” PCR with the Clontech TaqStart antibody system (Cat. #5400-1). Each reaction contained 1 ml of the cDNA library dilution as template, determined amounts of AmpliTaq DNA polymerase (cat. #N808-0156), MgCl2, dNTPs (GibcoBRL cat. #10297-018), primer, and Clontech TaqStart Antibody in a 20 ml final reaction volume using 10×Taq buffer II (without MgCl2). Typically, a master mix containing all components except the template was prepared and aliquoted. […] At various times during the PCR run, tubes were removed sequentially on a predetermined schedule in order to quantitate expression of the target DST over a “window” of cycle times. After amplification, the samples were quantified via fluorimetry.
PCR was performed at annealing temperatures that were five degrees above the average melting temperature of each primer pair. For primers greater than 10 bases (in a 0.05M salt solution), melting temperature was calculated using the following formula: Tm=59.9+41[% GC]−[675/Primer Length], where %GC is the decimal value. Following determination of the average melting temperature of the primer pair, the annealing temperature was determined by adding five degrees to the average melting temperature. […]

Test [3] relates to REC1_18 (MspI TGGT 241) mRNA. In words: quantified RT-PCR, Rec1_18. It is filed as in vivo, rabbit. The following applies: for Relative Abundance Rec1_18, 20 pg F: hypercholesterolemic plus lercanidipine racemate, eight weeks, H2 (normocholesterolemic)=1.0. How it is done: as §1, §2, §3, §4, §5
The subject of a further test is Rec1_21 (TTCC 165) mRNA. In words: quantified RT-PCR, Rec1_21. It is filed as in vivo, rabbit. Conditions: for Relative Abundance Rec1_21, 20 pg F: hypercholesterolemic plus lercanidipine racemate, eight weeks, H2 (normocholesterolemic)=1.0. The procedure:
as §1, §2, §3, §4
Background fluorescence was determined by using duplicate control samples that were cycled with all reaction components except the template. The mean value from these duplicate background control samples was subtracted from the corresponding experimental values prior to analyzing results. The sensitivity of the PicoGreen dsDNA assay is reported to be 250 pg/ml (50 pg dsDNA in a […] assay volume) using a fluorescence microplate reader such as was used in these measurements.
FIG. 20 is a graphical representation of the results of RT-PCR using 20 pg of clone REC1—21 template, in which the amount of PCR product (measured in arbitrary fluorescence units) is plotted against number of cycles, where polyA enriched mRNA was extracted from aortas or rabbits that were normocholesterolemic (filled diamonds, “H2”) and hypercholestrolemic plus lercanidipine racemate, eight weeks (filled squares, “F”).

Another test deals with calcium channel. The following applies: (R)-enantiomer compared with the other enantiomer of lercanidipine; cited from earlier work.
Where [4] appears, read: hypercholesterolemic animals receiving lercanidipine.
Setting [5] is: hypercholesterolemic animals receiving lercanidipine racemate.

We go through 2 compounds from US20030215817A1, “Modulation of gene expression in formation of fatty atherosclerotic lesions” (priority 2003, published 2003).

Structures can show the parent of a compound that is named as a salt.

As for `COC(=O)C1=C(C)NC(C)=C(C(=O)OC(C)(C)CN(C)CCC(c2ccccc2)c2ccccc2)C1c1cccc([N+](=O)[O-])c1` (racemic) [lercanidipine, lercanidipine hydrochloride], the “Relative Abundance Rec1_16, 20 pg F” value is reported as 0.0 with REC1_16 (TCGG 195) mRNA (cycle 28), 0.2 in the test on REC1_16 (TCGG 195) mRNA (cycle 30), 0.6 with REC1_16 (TCGG 195) mRNA (cycle 32) and 0.3 in the test on REC1_16 (TCGG 195) mRNA (cycle 34). For the same compound, in the test on REC1_16 (TCGG 195) mRNA (setting [4]), the “expression of Rec1_16 at 8 weeks (RT-PCR study), in words” value was “decreased”. In addition, the “Relative Abundance Rec1_12, 20 pg F” value is 0.1 in the test on Rec1_12 (GCCC 232) mRNA (cycle 26); 0.0 in the test with Rec1_12 (GCCC 232) mRNA (cycle 28); 0.4 with Rec1_12 (GCCC 232) mRNA (cycle 30); 0.6 in the test with Rec1_12 (GCCC 232) mRNA (cycle 32); 0.6 in the test on Rec1_12 (GCCC 232) mRNA (cycle 34); 0.6 in the test on Rec1_12 (GCCC 232) mRNA (cycle 36). Further, the “expression of Rec1_12 at 8 weeks (RT-PCR study), in words” value in the test on Rec1_12 (GCCC 232) mRNA (setting [4]) is recorded as “decreased”. Moreover, the “Relative Abundance Rec1_3, 500 pg F” value in test [1] (cycle 26) amounted to 0.0; in [1] (cycle 28) it was 0.0; in test [1] (cycle 30), 0.0; in [1] (cycle 32), 0.1; in test [1] (cycle 34), 0.4. The “expression of Rec1_3 at 8 weeks (RT-PCR study), in words” value in [1] (hypercholesterolemic animals receiving lercanidipine racemate, compared with hypercholesterolemic animals at 14 days) is given as “lower”. The “antioxidant for LDL in endothelial cell-mediated oxidation” value in the test with LDL was “act as an antioxidant”. In addition, the “Relative Abundance Rec1_13, 100 pg F” value in [2] (cycle 20) came to 1.4; in test [2] (cycle 22), 33.7; in test [2] (cycle 24), 3.0; in test [2] (cycle 26), 1.9; in [2] (cycle 28), 1.2; in [2] (cycle 30), 1.3. Further, the “expression of Rec1_13 at 8 weeks (RT-PCR study), in words” value in test [2] (setting [5]) is “elevated”. The “Relative Abundance Rec1_36, 100 pg F” value in the test with Rec1_36 (TTAG 155) mRNA (cycle 30) stood at 0.2; in the test with Rec1_36 (TTAG 155) mRNA (cycle 32), 0.5; in the test on Rec1_36 (TTAG 155) mRNA (cycle 34) it was 0.4. Moreover, the “Relative Abundance Rec1_18, 20 pg F” value in test [3] (cycle 24) turned out to be 169.0; in [3] (cycle 26), 5.8; in test [3] (cycle 28) it was 1.0; in test [3] (cycle 30), 1.0; in test [3] (cycle 32), 1.4; in [3] (cycle 34), 1.1. The “expression of Rec1_18 at 8 weeks (RT-PCR study), in words” value in test [3] (setting [5]) was “somewhat elevated”. Besides, the “Relative Abundance Rec1_21, 20 pg F” value amounted to 0.0 in the test with Rec1_21 (TTCC 165) mRNA (cycle 24); 0.0 with Rec1_21 (TTCC 165) mRNA (cycle 26); 0.0 with Rec1_21 (TTCC 165) mRNA (cycle 28); 0.1 in the test on Rec1_21 (TTCC 165) mRNA (cycle 30); 0.1 with Rec1_21 (TTCC 165) mRNA (cycle 32); 0.3 in the test on Rec1_21 (TTCC 165) mRNA (cycle 34). In addition, in the test with Rec1_21 (TTCC 165) mRNA (setting [4]), the “expression of Rec1_21 at 8 weeks (RT-PCR study), in words” value is recorded as “substantially decreased”.

As to `COC(=O)C1=C(C)NC(C)=C(C(=O)OC(C)(C)CN(C)CCC(c2ccccc2)c2ccccc2)[C@@H]1c1cccc([N+](=O)[O-])c1.Cl` (single isomer, unassigned) [(R)-lercanidipine], the “effectiveness as a ligand to the calcium channel, less effective” value in the test with calcium channel is on record as 2-3 orders of magnitude.
